The text below walks through data of ChEMBL document CHEMBL5215005, “Discovery of Efrotomycin Congeners and Heterologous Expression-Based Insights into the Self-Resistance Mechanism” (2022).

What all share (assay type): functional
One experiment relates to Streptomyces albus. Put plainly: Antibacterial activity against Streptomyces albus Del14 assessed as inhibition zone at 10 ug incubated for 2 days by disc diffusion assay. The following applies: Del14, 48 h, time 2 day, read-out: IZ. (In general: A growth-free zone around the sample is the usual read-out of agar diffusion tests.)
A further experiment relates to Streptomyces lividans. Briefly: Antibacterial activity against Streptomyces lividans SBT18 assessed as inhibition zone at 10 ug incubated for 2 days by disc diffusion assay. The following applies: SBT18, 48 h, time 2 day, read-out: IZ.
The subject of a further experiment is Streptomyces coelicolor. Put plainly: Antibacterial activity against Streptomyces coelicolor YF11 assessed as inhibition zone at 10 ug incubated for 2 days by disc diffusion assay. The following applies: YF11, 48 h, time 2 day, read-out: IZ.
The subject of a further experiment is Micrococcus luteus. Briefly: Antibacterial activity against Micrococcus luteus SCSIO ML01 by Mueller-Hinton broth microdilution method. For orientation: Broth dilution looks for growth in wells or tubes with falling amounts of substance.

Converted amounts (≈) assume the structure as drawn.

As a reminder, the MIC is the smallest concentration in the dilution series that meets the test's criterion for growth inhibition. A higher MIC goes with a need for much substance. For `C/C=C\C=C\[C@@H]1O[C@](O)([C@H](CC)C(=O)NC/C=C/C=C(\C)[C@@H](OC)[C@@H](C)[C@H](O)[C@@H](O)\C=C/C=C/C=C/C=C(\C)C(=O)c2c(O)ccn(C)c2=O)[C@H](O)[C@H](O[C@H]2O[C@@H](C)[C@H](O[C@@H]3O[C@@H](C)[C@H](O)[C@@H](O)[C@H]3OC)[C@H](OC)[C@@H]2O)C1(C)C`, the results for the zone of inhibition at 10 µg/disc in the experiment with Streptomyces albus, in the experiment with Streptomyces lividans and in the experiment with Streptomyces coelicolor were 15 mm, 8 mm and 8 mm, respectively. In the experiment on Micrococcus luteus, this molecule yielded an MIC of 8 µg/mL (≈ 7.17 µM).

Consider `C/C=C\C=C\[C@@H]1O[C@](O)([C@@H](CC)C(=O)NC/C=C/C=C(\C)[C@H](OC)[C@H](C)[C@@H]2O[C@H](/C=C/C=C/C=C(\C)C(=O)c3c(O)ccn(C)c3=O)[C@H](O)[C@H]2O)[C@H](O)[C@H](O[C@H]2O[C@@H](C)[C@H](O[C@@H]3O[C@@H](C)[C@H](O)[C@@H](O)[C@H]3OC)[C@H](OC)[C@@H]2O)C1(C)C`, for which the zone of inhibition at 10 µg/disc in the experiment with Streptomyces albus was 15 mm. Besides, in the experiment on Micrococcus luteus, the minimum inhibitory concentration (MIC) worked out at 8 µg/mL (≈ 7.07 µM).

For `C/C=C\C=C\[C@@H]1O[C@](O)([C@H](CC)C(=O)NC/C=C/C=C(\C)[C@@H](OC)[C@@H](C)[C@H](O)[C@@H](O)\C=C/C=C/C=C/C=C(\C)C(=O)c2c(O)ccn(C)c2=O)[C@H](O)[C@H](O)C1(C)C`, the zone of inhibition at 10 µg/disc in the experiment on Streptomyces albus came out at 15 mm; in the experiment with Streptomyces lividans it was 8 mm; in the experiment on Streptomyces coelicolor, 8 mm. The MIC in the experiment with Micrococcus luteus stood at 8 µg/mL (≈ 10.1 µM).

On to `C/C=C\C=C\[C@@H]1O[C@](O)([C@@H](CC)C(=O)NC/C=C/C=C(\C)[C@H](OC)[C@H](C)[C@@H]2O[C@H](/C=C/C=C/C=C(\C)C(=O)c3c(O)ccn(C)c3=O)[C@@H](O)[C@H]2O)[C@H](O)[C@H](O[C@H]2O[C@@H](C)[C@H](O[C@@H]3O[C@@H](C)[C@H](O)[C@@H](O)[C@H]3OC)[C@H](OC)[C@@H]2O)C1(C)C`, for which the zone of inhibition at 10 µg/disc in the experiment on Streptomyces albus came to 15 mm. In the experiment with Micrococcus luteus, this molecule displayed an MIC of 8 µg/mL (≈ 7.07 µM).

Consider `C/C=C\C=C\[C@@H]1O[C@](O)([C@H](CC)C(=O)NC/C=C/C=C(\C)[C@@H](OC)[C@@H](C)[C@H](O)[C@@H](O)/C=C/C=C/C=C/C=C(\C)C(=O)c2c(O)ccn(C)c2=O)[C@H](O)[C@H](O[C@H]2O[C@@H](C)[C@H](O[C@@H]3O[C@@H](C)[C@H](O)[C@@H](O)[C@H]3OC)[C@H](OC)[C@@H]2O)C1(C)C`, for which the zone of inhibition at 10 µg/disc in the experiment with Streptomyces albus worked out at 15 mm. For the same molecule, the MIC against Micrococcus luteus stood at 8 µg/mL (≈ 7.17 µM).
